{"source": "paper PMC5049701", "about": "(Nature chemical biology, 2016)", "target": "T1, FsqB (Aspergillus fumigatus, UniProt Q4WD43)", "T1 sequence (Q4WD43 1-497)": "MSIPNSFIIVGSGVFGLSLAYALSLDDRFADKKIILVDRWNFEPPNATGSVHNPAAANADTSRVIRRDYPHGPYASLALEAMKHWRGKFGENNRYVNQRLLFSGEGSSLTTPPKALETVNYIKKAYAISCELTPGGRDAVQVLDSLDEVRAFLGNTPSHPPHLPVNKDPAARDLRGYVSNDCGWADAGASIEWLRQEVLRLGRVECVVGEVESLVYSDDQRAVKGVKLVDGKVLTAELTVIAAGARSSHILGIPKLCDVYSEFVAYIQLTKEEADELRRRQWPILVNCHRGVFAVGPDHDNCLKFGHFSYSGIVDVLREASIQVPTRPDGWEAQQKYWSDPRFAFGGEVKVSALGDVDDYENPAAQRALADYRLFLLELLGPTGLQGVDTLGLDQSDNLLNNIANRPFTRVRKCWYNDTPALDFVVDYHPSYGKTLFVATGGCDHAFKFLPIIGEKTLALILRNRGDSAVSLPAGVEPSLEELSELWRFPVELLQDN", "experiment": "tryptic digest UHPLC-MS/MS", "type": "binding", "conditions": "covalent, bound to cysteine-414"}
{"smiles": "Cc1cc2nc3c(=O)[nH]c(=O)nc-3n(C[C@H](O)[C@H](O)[C@H](O)COP(=O)(O)OP(=O)(O)OC[C@H]3O[C@@H](n4cnc5c(N)ncnc54)[C@H](O)[C@@H]3O)c2cc1C", "note": "[FAD]", "values": [{"measurement": "tryptic digest UHPLC-MS/MS; flavin fluorescence", "value": "presence of FAD, which was found to be covalently bound to cysteine-414"}]}
